Marks after values point to notes of the source that are not given here.
Experiments:
HCV genotype 1 = conditions: cited from earlier work
[1] = Buffer stability (stability of the compounds in the absence of cells); type: physicochemical; conditions: 24 hr
HCV replicon = assay: Predicted EC50 against HCV replicon in primary human hepatocytes; type: cell-based; conditions: Hepatitis C virus, Hepatocyte
HCV = conditions: several large clinical trials; cited from earlier work
[2] = system: Cynomolgus monkey liver hepatocyte; assay: Half-life of active triphosphate in monkey hepatocytes; type: in vitro ADME; conditions: parenthesis = 95% confidence interval
Method: (§1) Human hepatocyte cells used for half-life determinations were human liver hepatocyte 12-well format cells and were seeded at 0.67 million cells per well. Canine hepatocyte cells used for half-life determinations were beagle dog liver hepatocyte 12-well format cells and were seeded at 0.67 million cells per well. Monkey hepatocyte cells used for half-life determinations were Cynomolgus monkey liver hepatocyte 12-well format cells, and were seeded at 0.9 million cells per well. Rat hepatocyte cells for half-life determinations were Sprague-Dawley (SD) rat liver hepatocyte 12-well format cells, and were seeded at 0.67 million cells per well. All cells were obtained from Life Technologies.

human liver hepatocytes = assay: Triphosphate levels (Formula IV, GS-7977-TP) in human hepatocytes; type: in vitro ADME; conditions: for time at which peak levels were obtained: 5 μM parent, 48 hours of incubation
Method: […] Cells were washed twice with cold PBS.
Supernatants were removed and analyzed by LC-MS/MS. […] Samples were centrifuged at 3000 rpm for 15 minutes. Supernatants were removed and analyzed by LC-MS/MS.

human liver hepatocyte = assay: Half-life of active triphosphate in human hepatocytes; type: in vitro ADME; conditions: for t1/2 (hr): Human hepatocytes, parenthesis = 95% confidence interval
Method: as §1

[3] = system: beagle dog liver hepatocyte; assay: Half-life of active triphosphate in dog hepatocytes; type: in vitro ADME; conditions: parenthesis = 95% confidence interval
Method: as §1

primary hepatocytes = assay: Formula IV concentration from Formula II dosing in primary hepatocytes; type: in vitro ADME, human
Text: The general methods of Example 13 were used to determine compound concentrations.

[4] = system: hepatocytes (human, dog, monkey and rat); assay: Half-lives of active triphosphate in hepatocytes from four species; type: in vitro ADME; conditions: across hepatocytes from four species (human, dog, monkey, rat)
Method: as §1

[5] = system: Sprague-Dawley (SD) rat liver hepatocyte; assay: Half-life of active triphosphate in rat hepatocytes; type: in vitro ADME; conditions: parenthesis = 95% confidence interval
Method: as §1

HCV genotype 1, 2 or 3 = conditions: once-daily 300 mg for seven days, treatment naïve patients; cited from earlier work
[6] = 2 hr incubation with 5 μM Formula II
[7] = 4 hr incubation with 5 μM Formula II
[8] = 8 hr incubation with 5 μM Formula II
[9] = 25 hr incubation with 5 μM Formula II
[10] = 48 hr incubation with 5 μM Formula II

## CC(C)OC(=O)[C@H](C)NP(=S)(OC[C@H]1O[C@@H](n2ccc(=O)[nH]c2=O)[C@](C)(O)[C@@H]1O)Oc1ccccc1 (stereo partly drawn) [VX-135]
HCV genotype 1; eleven patients who completed 12 weeks of treatment, with daclatasvir
  completion of treatment rate (SVR4): 91%
HCV genotype 1; intent-to-treat, treatment-naïve genotype 1, 200 mg VX-135 in combination with daclatasvir
  sustained viral response rate four weeks after completion of treatment (SVR4): 83%

## [2H]c1cn([C@@H]2O[C@H](C([2H])([2H])OP(=O)(N[C@@H](C)C(=O)OC(C)C)Oc3ccccc3)[C@@H](O)[C@@]2(C)O)c(=O)[nH]c1=O (stereo partly drawn) [Formula II]
[1]; Table 1
  Buffer Stability Parent T24 hr 37° C.: 97
[1]; Table 2
  Buffer Stability Parent T24 hr 37° C.: 97
HCV replicon
  EC50: 6.25 to 10 nM

## CC(C)OC(=O)[C@H](C)N[P@](=O)(OC[C@H]1O[C@@H](n2ccc(=O)[nH]c2=O)[C@@](C)(F)C1O)Oc1ccccc1 (stereo partly drawn) [Sovaldi, Sofosbuvir]
HCV
  sustained viral response (SVR) of twelve weeks, trial participants: 50-90%

## C[C@]1(O)C(n2ccc(=O)[nH]c2=O)OC(COP(=O)(O)OP(=O)(O)OP(=O)(O)O)[C@H]1O (stereo partly drawn) [Formula IV]
[2]
  t1/2 (hr): 14.5 (11.8-18.9) hr
Human liver hepatocytes; human hepatocytes
  time at which peak levels were obtained: > 48 h
Human liver hepatocytes; [6]
  Formula IV (pmol/million cells) rep 1: 72.1 pmol/million cells
  Formula IV (pmol/million cells) rep 2: 71.5 pmol/million cells
  Formula IV (pmol/million cells) rep 3: 67.9 pmol/million cells
Human liver hepatocytes; [7]
  Formula IV (pmol/million cells) rep 1: 130 pmol/million cells
  Formula IV (pmol/million cells) rep 2: 129 pmol/million cells
  Formula IV (pmol/million cells) rep 3: 129 pmol/million cells
Human liver hepatocytes; [8]
  Formula IV (pmol/million cells) rep 1: 218 pmol/million cells
  Formula IV (pmol/million cells) rep 2: 217 pmol/million cells
  Formula IV (pmol/million cells) rep 3: 236 pmol/million cells
Human liver hepatocytes; [9]
  Formula IV (pmol/million cells) Mean+StDev: 486 pmol/million cells
  Formula IV (pmol/million cells) rep 1: 506 pmol/million cells
  Formula IV (pmol/million cells) rep 2: 465 pmol/million cells
  Formula IV (pmol/million cells) rep 3: 488 pmol/million cells
Human liver hepatocytes; [10]
  Formula IV (pmol/million cells) rep 1: 619 pmol/million cells
  Formula IV (pmol/million cells) rep 2: 581 pmol/million cells
  Formula IV (pmol/million cells) rep 3: 575 pmol/million cells
Human liver hepatocyte
  t1/2 (hr): 27.6 (26.0-29.4)^a hr
Human liver hepatocyte; human hepatocytes
  half-life: > 24 h
[3]
  t1/2 (hr): 29.6 (22.0-45.4) hr
Primary hepatocytes; 50 nM Formula II, primary hepatocytes vs Huh-luc/neo cells
  Formula IV concentration higher than in Huh-luc/neo cells: 5- to 8 fold
Primary hepatocytes; Formula II at 50 nM, primary hepatocytes, 24 hours
  level of Formula IV: 9.2-16.2 pmol/million cells
[4]
  half-lives range: 10 to 30 h
[5]
  t1/2 (hr): 10.2 (8.6-12.5) hr

## C[C@@]1(F)[C@H](O)[C@@H](COP(=O)(O)OP(=O)(O)OP(=O)(O)O)O[C@H]1n1ccc(=O)[nH]c1=O [GS-7977-TP, reference compound]
[2]
  t1/2 (hr): 9.3 (7.9-11.4) hr
Human liver hepatocytes; human hepatocytes
  time at which peak levels were obtained: 24 h
Human liver hepatocytes; over a 48 hour period, 5 μM, human hepatocytes
  intracellular conversion to triphosphate, greater than that of Formula IV from Formula II: 2 fold
Human liver hepatocyte
  t1/2 (hr): 22.6 (21.5-23.9) hr
[3]
  t1/2 (hr): 17.7 (15.0-21.5) hr
[4]
  half-lives range: 8 to 23 h
[5]
  t1/2 (hr): 7.6 (6.4-9.3) hr

## CC(C)OC(=O)[C@@H](C)N[P@@](=O)(OC[C@H]1O[C@@H](n2ccc(=O)[nH]c2=O)[C@](C)(Cl)[C@@H]1O)Oc1ccccc1 [IDX21437]
HCV genotype 1, 2 or 3
  mean maximum reduction in viral load: 4.2-4.3 log 10 IU/mL
